# Measured values taken from PMC4331664, “Allosteric regulation of the partitioning of glucose-1-phosphate between glycogen and trehalose biosynthesis in Mycobacterium tuberculosis” (Biochimica et Biophysica Acta. General Subjects, 2015).
# Read-outs that look alike come from different tables or passages of the source.
# How the values were obtained:
# [1] = target: T1, ADP-Glc PPase (ADP-glucose pyrophosphorylase) (Mycobacterium tuberculosis, UniProt P9WN43)
# T1 construct: gene glgC
# [2] = target: T2, Tre-6P Sase (trehalose-6-phosphate synthase) (Mycobacterium tuberculosis, UniProt P9WN11); settings: read-out: A0.5
# T2 construct: gene otsA
# [3] = target: T1, ADP-Glc PPase (ADP-glucose pyrophosphorylase); settings: read-out: A0.5
# [4] = target: T1, ADP-Glc PPase (ADP-glucose pyrophosphorylase); experiment: biochemical
# [5] = tested on: Nc1ncnc2c1ncn2[C@@H]1O[C@H](COP(=O)(O)OP(=O)(O)O[C@H]2O[C@H](CO)[C@@H](O)[C@H](O)[C@H]2O)[C@@H](O)[C@H]1O; experiment: purified protein; settings: pH 8.0
# T1 sequence (P9WN43 whole entry): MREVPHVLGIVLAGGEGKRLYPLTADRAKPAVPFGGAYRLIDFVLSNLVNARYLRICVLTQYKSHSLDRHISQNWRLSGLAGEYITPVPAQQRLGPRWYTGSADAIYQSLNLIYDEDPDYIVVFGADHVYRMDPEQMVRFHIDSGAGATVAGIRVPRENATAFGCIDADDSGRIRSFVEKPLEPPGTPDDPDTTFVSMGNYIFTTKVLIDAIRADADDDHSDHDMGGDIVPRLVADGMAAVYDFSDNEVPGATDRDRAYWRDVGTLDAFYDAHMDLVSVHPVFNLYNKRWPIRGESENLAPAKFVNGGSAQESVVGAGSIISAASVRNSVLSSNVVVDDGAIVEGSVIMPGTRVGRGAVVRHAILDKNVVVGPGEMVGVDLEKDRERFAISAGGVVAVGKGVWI
# T2 sequence (P9WN11 whole entry): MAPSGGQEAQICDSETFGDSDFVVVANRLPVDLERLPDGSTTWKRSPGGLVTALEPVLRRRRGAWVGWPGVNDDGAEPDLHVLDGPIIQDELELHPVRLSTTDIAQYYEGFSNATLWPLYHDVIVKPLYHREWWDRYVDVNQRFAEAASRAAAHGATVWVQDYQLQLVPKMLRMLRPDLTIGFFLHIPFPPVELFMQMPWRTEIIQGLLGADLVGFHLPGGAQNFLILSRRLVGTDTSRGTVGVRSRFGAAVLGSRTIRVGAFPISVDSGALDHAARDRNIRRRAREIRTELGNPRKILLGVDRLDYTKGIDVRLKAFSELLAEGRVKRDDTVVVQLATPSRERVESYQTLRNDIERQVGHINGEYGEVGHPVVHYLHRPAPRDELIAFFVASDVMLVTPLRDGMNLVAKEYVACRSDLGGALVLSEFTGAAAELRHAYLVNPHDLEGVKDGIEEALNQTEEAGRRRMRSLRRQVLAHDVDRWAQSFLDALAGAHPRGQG
molecule,measurement,setting,value
O=P(O)(O)OC[C@H]1OC(O)(CO)[C@@H](O)[C@@H]1O (stereo partly drawn) [Fru-6P],fold activation at 5 mM,[1],1.3 fold
same,EC50,[2],330 µM
O=P(O)(O)OC[C@H]1OC(O)[C@H](O)[C@@H](O)[C@@H]1O (stereo partly drawn) [Glc-6P],EC50,[3],870 µM
C=C(OP(=O)(O)O)C(=O)O [PEP],EC50,[4],90 µM
GSase (glycogen synthase) (Mycobacterium tuberculosis H37Rv),K0.5,[5],3.95 ± 0.12 mM
same,Vmax,[5],0.21 µmol/min/mg
